Data from US10323060B2, “Benzoic acid derivatives of bile acid as FXR/TGR5 agonists and methods of use thereof” (ENANTA PHARMACEUTICALS, INC., priority 2016, dated 2019).

Biological target: human FXR (NR1H4) (Homo sapiens (Human), UniProt Q96RI1)
Experiment: Human FXR (NR1H4) Assay (luciferase reporter, Indigo Bioscience kit); for Efficacy (%): efficacy normalized to CDCA set as 100%
Assay type: cell-based
Settings: for EC50: FXR agonistic potency range, CHO reporter cells expressing human NR1H4, 22 hours incubation; for Emax: read-out: Efficacy (%)
From the text: Assays Human FXR (NR1H4) Assay
Determination of a ligand mediated Gal4 promoter driven transactivation to quantify ligand binding mediated activation of FXR. FXR Reporter Assay kit purchased from Indigo Bioscience (Catalogue number: IB00601) to determine the potency and efficacy of compound developed by Enanta that can induce FXR activation. The principle application of this reporter assay system is to quantify functional activity of human FXR. The assay utilizes non-human mammalian cells, CHO (Chinese hamster ovary) cells engineered to express human NR1H4 protein (referred to as FXR). Reporter cells also incorporate the cDNA encoding beetle luciferase which catalyzes the substrates and yields photon emission. Luminescence intensity of the reaction is quantified using a plate-reading luminometer, Envision. Reporter Cells include the luciferase reporter gene functionally linked to an FXR responsive promoter. Thus, quantifying changes in luciferase expression in the treated reporter cells provides a sensitive surrogate measure of the changes in FXR activity. […] The assay is according to the manufacturer's instructions. In brief, the assay was performed in white, 96 well plates using final volume of 100 ul containing cells with different doses of compounds. Retrieve Reporter Cells from −80° C. storage. Perform a rapid thaw of the frozen cells by transferring a 10 ml volume of 37° C. cell recovery medium into the tube of frozen cells. Recap the tube of Reporter Cells and immediately place it in a 37° C. water bath for 5-10 minutes. Retrieve the tube of Reporter Cell Suspension from the water bath. Sanitize the outside surface of the tube with a 70% alcohol swab, and then transfer it into the cell culture hood. Dispense 90 μl of cell suspension into each well of the 96-well Assay Plate. Transfer the plate into 37° C. incubator, allowing the cells adherent to the bottom of the well. Dilute compounds in Dilution Plate (DP), and administrate to cells at Assay Plate (AP). DMSO content of the samples was kept at 0.2%. Cells were incubated for additional 22 hours before luciferase activities were measured. Thirty minutes before intending to quantify FXR activity, remove Detection Substrate and Detection Buffer from the refrigerator and place them in a low-light area so that they may equilibrate to room temperature. Remove the plate's lid and discard all media contents by ejecting it into an appropriate waste container. Gently tap the inverted plate onto a clean absorbent paper towel to remove residual droplets. Cells will remain tightly adhered to well bottoms. Add 100 μl of luciferase detection reagent to each well of the assay plate. Allow the assay plate to rest at room temperature for at least 5 minutes following the addition of LDR. Set the instrument (Envision) to perform a single 5 second “plate shake” prior to reading the first assay well. Read time may be 0.5 second (500 mSec) per well.

Chain of human FXR (NR1H4) (Q96RI1 whole entry): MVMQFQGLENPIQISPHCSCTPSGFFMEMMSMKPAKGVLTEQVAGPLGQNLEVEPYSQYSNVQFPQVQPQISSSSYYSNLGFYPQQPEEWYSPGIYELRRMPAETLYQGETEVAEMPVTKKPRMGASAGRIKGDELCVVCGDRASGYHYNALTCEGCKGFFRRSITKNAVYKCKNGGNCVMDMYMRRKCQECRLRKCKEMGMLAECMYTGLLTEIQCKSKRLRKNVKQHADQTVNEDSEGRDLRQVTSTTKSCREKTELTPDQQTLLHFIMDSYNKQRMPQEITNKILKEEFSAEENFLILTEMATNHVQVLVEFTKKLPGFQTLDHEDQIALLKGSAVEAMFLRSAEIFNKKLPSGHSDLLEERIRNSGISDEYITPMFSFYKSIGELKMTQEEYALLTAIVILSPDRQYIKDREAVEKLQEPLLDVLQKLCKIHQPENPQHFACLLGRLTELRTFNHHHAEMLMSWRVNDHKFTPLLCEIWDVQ

SMILES	EC50 [nM]	Emax [%]
CC[C@H]1[C@@H](O)[C@@H]2[C@H](CC[C@]3(C)[C@@H]([C@H](C)CC4CC4c4ccc(C(=O)O)cc4)CC[C@@H]23)[C@@]2(C)CC[C@@H](O)C[C@@H]12 (stereo partly shown) [Example 34]	1000 to 10000	195
CC[C@H]1[C@@H](O)[C@@H]2[C@H](CC[C@]3(C)[C@@H]([C@H](C)CCOc4ccc(F)cc4C(=O)O)CC[C@@H]23)[C@@]2(C)CC[C@@H](O)C[C@@H]12 [Example 35]	100 to 1000	203
